As usually defined, the IC50 is the midpoint of a concentration-inhibition curve.

The target of the experiment is T1, MAGL (Homo sapiens, UniProt Q99685).
T1 sequence (Q99685 1-303): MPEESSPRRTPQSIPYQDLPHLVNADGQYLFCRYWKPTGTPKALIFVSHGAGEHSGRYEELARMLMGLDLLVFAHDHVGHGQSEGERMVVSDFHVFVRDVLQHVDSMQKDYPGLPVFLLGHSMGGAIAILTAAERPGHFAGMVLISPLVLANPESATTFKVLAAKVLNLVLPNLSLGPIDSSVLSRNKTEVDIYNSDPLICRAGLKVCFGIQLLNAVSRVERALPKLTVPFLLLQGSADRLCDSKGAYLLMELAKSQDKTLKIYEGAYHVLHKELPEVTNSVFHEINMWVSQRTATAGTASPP
The experiment is described as follows: 2-AG assay (MAGL inhibitory activity, hydrolysis of 2-arachidonoylglycerol followed by mass spectrometry). The format is biochemical. The conditions noted are these: 15 min preincubation at RT, 8 μM 2-arachidonoylglycerol, 30 min at RT, arachidonic acid by MS. The procedure:
Compounds were profiled for MAGL inhibitory activity by determining the enzymatic activity by following the hydrolysis of the natural substrate 2-arachidonoylglycerol (2-AG) resulting in arachidonic acid, which can be followed by mass spectrometry. This assay is hereinafter abbreviated “2-AG assay”.
The 2-AG assay was carried out in 384 well assay plates (PP, Greiner Cat #784201) in a total volume of 20 μL. Compound dilutions were made in 100% DMSO (VWR Chemicals 23500.297) in a polypropylene plate in 3-fold dilution steps to give a final concentration range in the assay from 12.5 μM to […]. 0.25 μL compound dilutions (100% DMSO) were added to 9 μL MAGL in assay buffer (50 mM TRIS (GIBCO, 15567-027), 1 mM EDTA (Fluka, 03690-100 mL), 0.01% (v/v) Tween. After shaking, the plate was incubated for 15 min at RT. To start the reaction, 10 μL 2-arachidonoylglycerol in assay buffer was added. The final concentrations in the assay was […] and 8 μM 2-arachidonoylglyerol. After shaking and 30 min incubation at RT, the reaction was quenched by the addition of 40 μL of ACN containing 4 μM of d8-arachidonic acid. The amount of arachidonic acid was traced by an online SPE system (Agilent Rapidfire) coupled to a triple quadrupole mass spectrometer (Agilent 6460). A C18 SPE cartridge (G9205A) was used in an ACN/water liquid setup. The mass spectrometer was operated in negative electrospray mode following the mass transitions 303.1→259.1 for arachidonic acid and 311.1→267.0 for d8-arachidonic acid. The activity of the compounds was calculated based on the ratio of intensities [arachidonic acid/d8-arachidonic acid].

Regarding `O=C1CO[C@H]2CCN(C(=O)N3CC(c4nc(-c5ccc(Cl)cc5Cl)no4)C3)C[C@H]2N1` [Example 16, (4aR,8aS)-6-[3-[3-(2,4-Dichlorophenyl)-1,2,4-oxadiazol-5-yl]azetidine-1-carbonyl]-4,4a,5,7,8,8a-hexahydropyrido[4,3-b][1,4]oxazin-3-one], the IC50 is 24.5 nM. This counts as double-digit nanomolar.

Compound `O=C1CO[C@H]2CCN(C(=O)N3CC(c4ccc(OC5CC(F)(F)C5)cc4)C3)C[C@H]2N1` [Example 3, (4aR,8aS)-6-[3-[4-(3,3-Difluorocyclobutoxy)phenyl]azetidine-1-carbonyl]-4,4a,5,7,8,8a-hexahydropyrido[4,3-b][1,4]oxazin-3-one] registered an IC50 of 4.1 nM.

In turn, `O=C1CO[C@H]2CCN(C(=O)N3CC(OCc4ccc(Cl)cc4OC(F)(F)F)C3)C[C@H]2N1` [Example 33, (4aR,8aS)-6-(3-((4-Chloro-2-(trifluoromethoxy)benzyl)oxy)azetidine-1-carbonyl)hexahydro-2H-pyrido[4,3-b][1,4]oxazin-3(4H)-one] displayed an IC50 of 5.9 nM.

The compound `O=C1CO[C@H]2CCN(C(=O)[C@H]3C[C@H](OCc4ccc(C(F)(F)F)cc4Cl)C3)C[C@H]2N1` [Example 42, (4aR,8aS)-6-(3-((2-Chloro-4-(trifluoromethyl)benzyl)oxy)cyclobutane-1-carbonyl)hexahydro-2H-pyrido[4,3-b][1,4]oxazin-3(4H)-one] returned an IC50 of 261 nM. Compared with the last compound, the IC50 is about 44-fold higher.

With `O=C1CO[C@H]2CCN(C(=O)C3CC(OCc4ccc(C(F)(F)F)cc4Cl)C3)C[C@H]2N1` (stereo partly drawn) [Example 41, (4aR,8aS)-6-(3-((2-Chloro-4-(trifluoromethyl)benzyl)oxy)cyclobutane-1-carbonyl)hexahydro-2H-pyrido[4,3-b][1,4]oxazin-3(4H)-one], the IC50 came out at 774 nM. This IC50 is about 3-fold higher than that of the compound before.

In turn, `CC1C(OCc2c(F)cccc2C(F)(F)F)CN1C(=O)N1CC[C@@H]2OCC(=O)N[C@@H]2C1` (single isomer, unassigned) [Example 29] came in with a concentration for half-maximal inhibition (IC50) of 406 nM.

Compound `O=C1CO[C@H]2CCN(C(=O)N3CC(c4ccc(C5CC(F)(F)C5)cc4)C3)C[C@H]2N1` [Example 6, (4aR,8aS)-6-[3-[4-(3,3-Difluorocyclobutyl)phenyl]azetidine-1-carbonyl]-4,4a,5,7,8,8a-hexahydropyrido[4,3-b][1,4]oxazin-3-one] had an IC50 of 2.9 nM.

`CC1(C)CCOc2ccc(C3CN(C(=O)N4CC[C@@H]5OCC(=O)N[C@@H]5C4)C3)cc21` [Example 14, (4aR,8aS)-6-(3-(4,4-Dimethylchroman-6-yl)azetidine-1-carbonyl)hexahydro-2H-pyrido[4,3-b][1,4]oxazin-3(4H)-one] registered a half-maximal inhibitory concentration (IC50) of 26.4 nM. This IC50 is about 9.1-fold higher than that of the compound before.

`CC1(C)CCc2cc(C3CN(C(=O)N4CC[C@@H]5OCC(=O)N[C@@H]5C4)C3)ccc2O1` [Example 10, (4aR,8aS)-6-(3-(2,2-Dimethylchroman-6-yl)azetidine-1-carbonyl)hexahydro-2H-pyrido[4,3-b][1,4]oxazin-3(4H)-one] yielded an IC50 of 6 nM. Against the preceding compound, the IC50 is about 4.4-fold lower.

Turning to `O=C1CO[C@H]2CCN(C(=O)N3CCC(OCc4ccc(C(F)(F)F)cc4)CC3)C[C@H]2N1` [Example 24, (4aR,8aS)-6-(4-((4-(Trifluoromethyl)benzyl)oxy)piperidine-1-carbonyl)hexahydro-2H-pyrido[4,3-b][1,4]oxazin-3(4H)-one], the IC50 was found to be 62.1 nM.

`O=C1CO[C@H]2CCN(C(=O)N3CC(c4nnc(-c5ccc(F)cc5F)[nH]4)C3)C[C@H]2N1` [Example 48, (4aR,8aS)-6-[3-[5-(2,4-Difluorophenyl)-4H-1,2,4-triazol-3-yl]azetidine-1-carbonyl]-4,4a,5,7,8,8a-hexahydropyrido[4,3-b][1,4]oxazin-3-one] yielded an IC50 of 333 nM.

The compound `CC(Oc1ccc(C(F)(F)F)cc1Cl)C1CN(C(=O)N2CC[C@H]3OCC(=O)N[C@H]3C2)C1` (stereo partly drawn) [Example 46, (4aS,8aR)-6-(3-(1-(2-Chloro-4-(trifluoromethyl)phenoxy)ethyl)azetidine-1-carbonyl)hexahydro-2H-pyrido[4,3-b][1,4]oxazin-3(4H)-one] yielded an IC50 of 225 nM.

Values taken from patent US20210094973A1, “HETEROCYCLIC COMPOUNDS” (Hoffmann-La Roche Inc., priority 2019, published 2021).
